{"source": "patent US10174065B2", "about": "“Antidiabetic enolic glucoside of phenylpyruvic acid” (ZADEC APS, priority 2010, dated 2019)", "key": {"plasma glucose level": {"system": "plasma glucose level", "assay": "Reduction in plasma glucose of a diabetic primate after a single dose (FIG. 1)", "type": "in vivo, monkeys", "conditions": "diabetic primate M1081, baseline glucose 6.3 mmol/L, over 6 h after a single dose, 10.4 ug/kg BW"}, "[1]": {"system": "gene expression in pancreas", "assay": "Quantitative real-time PCR gene expression in pancreas of obese, insulin resistant Wistar rats", "type": "in vivo", "procedure": "Three week old male rats were fed a high fat diet for 24 weeks to induce obesity and insulin resistance. Thereafter, rats were treated with 0.3 mg/kg Rx-1 daily for two weeks, and then with 3 mg/kg Rx-1 daily for seven days. Fasting glucose concentrations were measured before treatment, after two weeks treatment with 0.3 mg/kg Rx-1 and then again after seven days treatment with 3 mg/kg Rx-1. After treatment with 3 mg/kg Rx-1 rats were terminated and liver, muscle and pancreas biopsies were taken. Quantitative real-time PCR was used to measure the expression of 12 genes in liver and muscle samples, and ten genes in pancreas samples.\nRats were housed at the Primate Unit (Medical Research Council, South Africa). Rat management including feeding, glucose measurements and terminations, were done according to standard operating procedures (Diabetes Discovery Platform, Medical Research Council). Briefly, three week old rats were fed a high fat diet for 24 weeks to induce T2D. The study group consisted of thirteen rats, eight rats were treated by daily gavage with 0.3 mg/kg Rx-1 for two weeks, and then with 3 mg/kg Rx-1 for seven days. Five rats were used as controls and were treated with water only for three weeks. Rats were terminated after treatment and liver, muscle and pancreas tissue harvested and stored in RNalater (Ambion) as recommended by the manufacturer. The study was approved by the ethics committee of the Medical Research Council of South Africa.\nRNA extracted from liver, muscle and pancreas tissue was converted to cDNA using the High Capacity Reverse Transcription kit as recommended by the manufacturers (Applied Biosystems). In brief, 2 μg of DNase-treated RNA was added to nuclease-free water in a volume of 10 μl. Thereafter, 2 μl reaction buffer, 0.8 μl dNTPs, 2 μl random primers, 1 μl RNase-inhibitor, 1 μl reverse transcriptase, and 3.2 μl nuclease-free water were added. The same reaction without the reverse transcription enzyme (minus RT reaction) was set-up to investigate genomic DNA contamination. Reactions were incubated at 25° C. for 10 min, 37° C. for 120 min, and 85° C. for 5 s to inactivate the reverse transcriptase. cDNA samples were stored at −20° C. until expression analysis.\nFor analysis of gene expression, 25 ng of cDNA prepared from liver, muscle and pancreas was mixed with 12.5 μl Taqman universal PCR master mix (Applied Biosystems), 1.25 μl gene-specific primer and probe mixtures (predeveloped Taqman gene expression assays, Applied Biosystems), and H2O in a final volume of 25 μl. The suffix _m represents an assay whose probe spans an exon-exon junction of the associated gene and therefore will not detect genomic DNA, while the suffix _s represents an assay whose primers and probes are designed within a single exon, such assays will detect genomic DNA.\nThe PCR reactions were conducted on the ABI 7500 Sequence Detection System Instrument (Applied Biosystems) using universal cycling conditions as described before. All samples were run in duplicate. Data generated on the ABI 7500 Instrument were analysed with the ABI Relative Quantitation (RQ) software (SDS V1.4) using a Ct threshold of 0.1. Relative expression levels were determined by using the 2^−ΔΔCt method, where ΔΔCt=(Ctgene studied−Cthousekeeping gene)treated−(Ctgene studied−Cthousekeeping gene)control. The gene expression was normalised to housekeeping genes to correct for differences in cDNA loading. Two gene expression assays, β-actin (ActB) and glyceraldehyde-3-phosphate dehydrogenase (Gapdh) (Table 1) were used as endogenous controls. Relative gene expression data generated by the RQ software for each of the two endogenous controls individually or the data normalised to the average of the two endogenous controls were imported into Microsoft Excel and analysed. […]"}, "GLP1": {"system": "GLP1", "conditions": "blood of treated OB/IR rats; other studies in our laboratory (Louw et al. 2008); cited from earlier work"}}, "data": [{"smiles": "O=C(O)/C(=C/c1ccccc1)O[C@@H]1O[C@H](CO)[C@@H](O)[C@H](O)[C@H]1O", "note": "[RX-1, 3-Phenyl-2-(3,4,5-trihydroxy-6-hydroxymethyl-tetrahydro-pyran-2-yloxy)-acrylic acid]", "values": [{"measurement": "reduction in plasma glucose level", "setting": "plasma glucose level", "result": "reduce the blood sugar of monkeys for prolonged periods of time"}, {"measurement": "Pcsk2 or proconvertase 2 (PC2) mRNA levels", "setting": "[1]", "result": "unaffected"}, {"measurement": "nestin mRNA levels", "setting": "[1]", "result": "unaffected"}, {"measurement": "GLP1R gene expression", "setting": "[1]; not statistically significant", "result": "increased"}, {"measurement": "Gcg mRNA levels", "setting": "[1]; not statistically significant", "result": "increased"}, {"measurement": "GcgR mRNA levels", "setting": "[1]; not statistically significant", "result": "increased"}, {"measurement": "Ins1 gene expression", "setting": "[1]; not statistically significant", "result": "increased"}, {"measurement": "Ins2 gene expression", "setting": "[1]; not statistically significant", "result": "increased"}, {"measurement": "Isl1 mRNA levels", "setting": "[1]; not statistically significant", "result": "increased"}, {"measurement": "Pdx1 gene expression", "setting": "[1]; not statistically significant", "result": "increased"}, {"measurement": "circulating GLP1 levels", "setting": "GLP1", "result": "increased"}]}]}
